From patent publication US7153826B2, “Treatment of rosacea” (Seatek Marine Biotechnology, Inc., priority 2000, dated 2006)
[ ]: non-standard residue; d: D form. Orn = NCCC[C@H](N)C(=O)O

Tests used:
rosacea [1] = experiment: Topical treatment of a subject afflicted with rosacea, two-year trial period (Example 2); assay type: in vivo, human
Text: A subject afflicted with rosacea received topical Metrogel™ overlayed with Lubriderm™ lotion in the morning and 1% loloatin B formulated in Lubriderm™ (as described above) in the evening. […] With this combined treatment, the rosacea was controlled such that only a few lesions were present at any given time, and complete remissions of several days duration became common.

rosacea [2] = experiment: Topical treatment of a human subject with moderately severe rosacea and pustular lesions (Example 1); assay type: in vivo
Experimental: The effectiveness of a cyclic decapeptide antibiotic for treating rosacea was determined on a human subject afflicted, for two years duration, with moderately severe rosacea and pustular lesions. […] The subject received topical metronidazole in a carbomer gel composition (Metrogel™) applied in the morning. Topical loloatin B (which was obtained by fermentation of the Bacillus deposited as ATCC 55797 generally following the methods described in WO98/04584) was applied in the evening. The loloatin was first dissolved in a minimal amount of alcohol which was then mixed with Lubriderm™ lotion to provide 1% w/v formulation.

rosacea [3] = details: metronidazole administered topically twice daily; cited from earlier work

Row | Molecule | control of the condition (rosacea [1]; combined Metrogel morning / 1% loloatin B evening, throughout the trial period (two years)) | healing time of the lesions (rosacea [1]; combined treatment Metrogel morning / 1% loloatin B evening) [days] | course of the rosacea (rosacea [1]; topical Metrogel overlayed with Lubriderm in the morning plus 1% loloatin B in Lubriderm in the evening) | improvement in the rosacea on reinstituting the regimen (rosacea [2]; each time once daily Metrogel and once daily loloatin was reinstituted) | improvement in the rosacea (rosacea [2]; topical Metrogel in the morning plus 1% w/v loloatin B in Lubriderm lotion in the evening, after one month) | patients who do not benefit from treatment (rosacea [3]) | benefit of previous treatments (rosacea [2]; previous treatments with metronidazole, same subject)
1 | cyclo[L-Val-L-Orn-L-Leu-D-Tyr-L-Pro-L-Phe-D-Phe-L-Asn-L-Asp-L-Trp] (cyclo(V[Orn]L[dY]PF[dF]NDW); SMILES CC(C)C[C@@H]1NC(=O)[C@H](CCCN)NC(=O)[C@H](C(C)C)NC(=O)[C@H](Cc2c[nH]c3ccccc23)NC(=O)[C@H](CC(=O)O)NC(=O)[C@H](CC(N)=O)NC(=O)[C@@H](Cc2ccccc2)NC(=O)[C@H](Cc2ccccc2)NC(=O)[C@@H]2CCCN2C(=O)[C@@H](Cc2ccc(O)cc2)NC1=O) [loloatin B] | effectively controlled | 2 to 3 | Progressive improvement | significant improvement | Significant improvement | – | –
2 | Cc1ncc([N+](=O)[O-])n1CCO [metronidazole, reference compound] | – | – | – | – | – | about 50% | without benefit
